How the values were obtained:
[1] = tested on: patients with schizophrenia or schizoaffective disorder; test: BACS cognitive battery; same 8-week adjunctive pregnenolone trial; format: in vivo, human; conditions: for BACS Composite Z-score / BACS Digit Sequencing raw score / BACS Symbol Coding raw score / BACS Token Motor raw score / BACS Tower of London raw score / BACS Verbal Fluency raw score / BACS Verbal Memory raw score: mean, n = 9; for BACS Composite, difference PG vs placebo in Z-score change: not statistically significant (p=0.22)
Protocol: (§1) Study Design and Subjects. Disclosed herein is a placebo-controlled, double-blind, parallel group, randomized trial of adjunctive pregnenolone for the treatment of cognitive and negative symptoms in patients with schizophrenia or schizoaffective disorder. […] Patients received a total of 6 study visits, which took place every two weeks. […] The trial was conducted at a single site, the Durham Veterans Affairs Medical Center in Durham, N.C. The protocol was approved by the local institutional review board and conducted under FDA Investigational New Drug (IND) #71,768. The ClinicalTrials.gov number for this study is NCT00560937.
(§2) Cognitive symptoms were assessed by the Brief Assessment of Cognition in Schizophrenia (BAGS; Keefe et al., 2004; Keefe et al., 2008), and the MATRICS Consensus Cognitive Battery (Nuechterlein & Green, 2006; Nuechterlein et al., 2008). It is believed that no clinical trial to date has reported both of these cognitive assessments within the same study. The BAGS and MATRICS batteries were administered two weeks following the screening visit (following the completion of the two-week placebo lead-in phase at Visit 2), and at two 4-week intervals thereafter (at midpoint following randomization at Visit 4 and at the final visit (Visit 6).
(§3) The BAGS cognitive battery utilizes the following assessments in the respective targeted domains (Keefe et al., 2004; Keefe et al., 2008): list learning (verbal memory), digit sequencing task (working memory), token motor task (motor speed), verbal fluency (processing speed), symbol coding (attention and processing speed), and the Tower of London test (executive functions/reasoning and problem solving). The MATRICS cognitive battery utilizes the following assessments: Trail Making Test, Part A and the symbol coding subtest of the BAGS (both assess speed of processing), the Hopkins Verbal Learning Test-Revised, immediate recall (three learning trials only) [verbal learning], the Wechsler Memory Scale, 3rd ed., spatial span subtest (working memory, nonverbal), the Letter-Number Span test (working memory, verbal), the Neuropsychological Assessment Battery, mazes subtest (reasoning and problem solving), the Brief Visuospatial Memory Test-Revised (visual learning), the Category Fluency Test (animal naming) [speed of processing], the Mayer-Salovey-Caruso Emotional Intelligence Test, managing emotions branch (social cognition), and the Continuous Performance Test, Identical Pairs version (attention/vigilance) Of note, the symbol coding subtest of the BAGS was administered only once per visit at Visits 2, 4, and 6, although it is a component of both the BAGS and MATRICS cognitive batteries, in order to avoid potentially confounding practice effects.

[2] = tested on: patients with schizophrenia or schizoaffective disorder; test: MATRICS/MCCB cognitive battery; same 8-week adjunctive pregnenolone trial; format: in vivo, human; conditions: for MATRICS/MCCB Composite score: head prints Raw Scores; for MATRICS/MCCB Composite score / MATRICS/MCCB BACS, symbol coding subtest raw score / MATRICS/MCCB Brief Visuospatial Memory Test-Rev. raw score / MATRICS/MCCB Category fluency test, animal naming raw score / MATRICS/MCCB Continuous Performance Test (CPT), Identical Pairs version-Average d′ raw score / MATRICS/MCCB Hopkins Verbal Learning Test raw score / MATRICS/MCCB Letter-Number Span test raw score / MATRICS/MCCB Mayer-Salovey-Caruso Emotional Intelligence Test, managing emotions branch raw score / MATRICS/MCCB Neuropsychological Assessment Battery, mazes subtest raw score / MATRICS/MCCB Trail Making Test, Part A raw score / MATRICS/MCCB Wechsler Memory Scale, 3rd ed., spatial span subtest raw score: mean, n = 9; for MATRICS/MCCB Composite, difference PG vs placebo in T-score change: column head prints Placebo
Protocol: as §1, §2, §3

[3] = Week 0 to Week 8, listed as pregnenolone

CC(=O)[C@H]1CC[C@H]2[C@@H]3CC=C4C[C@@H](O)CC[C@]4(C)[C@H]3CC[C@]12C [PG, pregnenolone]
BACS Composite Z-score ([1]; Week 0 (baseline)): −1.54 | BACS Digit Sequencing raw score ([1]; Week 0 (baseline)): 15.78 | BACS Symbol Coding raw score ([1]; Week 0 (baseline)): 36.89 | BACS Token Motor raw score ([1]; Week 0 (baseline)): 46.44 | BACS Tower of London raw score ([1]; Week 0 (baseline)): 13.22 | BACS Verbal Fluency raw score ([1]; Week 0 (baseline)): 45.78 | BACS Verbal Memory raw score ([1]; Week 0 (baseline)): 36.78 | BACS Composite, change in Z-score ([1]; Week 0 to Week 8): 0.60 | BACS Digit Sequencing, change in Z-score ([1]; Week 0 to Week 8): 0.50 | BACS Digit Sequencing, difference PG vs placebo in Z-score change ([1]; Week 0 to Week 8): 0.25 ± 0.29 | BACS Symbol Coding, change in Z-score ([1]; Week 0 to Week 8): 0.11 | BACS Symbol Coding, difference PG vs placebo in Z-score change ([1]; Week 0 to Week 8): −0.16 ± 0.24 | BACS Token Motor, change in Z-score ([1]; Week 0 to Week 8): 0.40 | BACS Token Motor, difference PG vs placebo in Z-score change ([1]; Week 0 to Week 8): 0.42 ± 0.66 | BACS Tower of London, change in Z-score ([1]; Week 0 to Week 8): 0.82± | BACS Tower of London, difference PG vs placebo in Z-score change ([1]; Week 0 to Week 8): 0.61 ± 0.80 | BACS Verbal Fluency, change in Z-score ([1]; Week 0 to Week 8): −0.05 | BACS Verbal Fluency, difference PG vs placebo in Z-score change ([1]; Week 0 to Week 8): −0.06 ± 0.32 | BACS Verbal Memory, change in Z-score ([1]; Week 0 to Week 8): 0.83 | BACS Verbal Memory, difference PG vs placebo in Z-score change ([1]; Week 0 to Week 8): 0.61 ± 0.38 | BACS Composite, change in Z-score [1, 3]: 0.60±0.78 | BACS Digit Sequencing, difference PG vs placebo in Z-score change [1, 3]: 0.25 | BACS Token Motor, difference PG vs placebo in Z-score change [1, 3]: 0.42 | BACS Tower of London, difference PG vs placebo in Z-score change [1, 3]: 0.61 | BACS Verbal Memory, difference PG vs placebo in Z-score change [1, 3]: 0.61 | BACS Composite, difference PG vs placebo in Z-score change ([1]; Week 0 to Week 8): 0.38 ± 0.30 | BACS Composite, difference PG vs placebo in Z-score change [1, 3]: approximately 0.4 | BACS Composite Z-score ([1]; Week 4): −1.04 | BACS Digit Sequencing raw score ([1]; Week 4): 17.22 | BACS Symbol Coding raw score ([1]; Week 4): 44.78 | BACS Token Motor raw score ([1]; Week 4): 55.56 | BACS Tower of London raw score ([1]; Week 4): 15.22 | BACS Verbal Fluency raw score ([1]; Week 4): 45.11 | BACS Verbal Memory raw score ([1]; Week 4): 39.00 | BACS Composite Z-score ([1]; Week 8): −0.93 | BACS Digit Sequencing raw score ([1]; Week 8): 18.44 | BACS Symbol Coding raw score ([1]; Week 8): 38.67 | BACS Token Motor raw score ([1]; Week 8): 52.22 | BACS Tower of London raw score ([1]; Week 8): 16.22 | BACS Verbal Fluency raw score ([1]; Week 8): 45.22 | BACS Verbal Memory raw score ([1]; Week 8): 43.78 | MATRICS/MCCB Composite score ([2]; Week 0 (baseline)): 29.00 | MATRICS/MCCB BACS, symbol coding subtest raw score ([2]; Week 0 (baseline)): 36.89 | MATRICS/MCCB Brief Visuospatial Memory Test-Rev. raw score ([2]; Week 0 (baseline)): 20.22 | MATRICS/MCCB Category fluency test, animal naming raw score ([2]; Week 0 (baseline)): 18.33 | MATRICS/MCCB Continuous Performance Test (CPT), Identical Pairs version-Average d′ raw score ([2]; Week 0 (baseline)): 1.42 | MATRICS/MCCB Hopkins Verbal Learning Test raw score ([2]; Week 0 (baseline)): 18.56 | MATRICS/MCCB Letter-Number Span test raw score ([2]; Week 0 (baseline)): 11.44 | MATRICS/MCCB Mayer-Salovey-Caruso Emotional Intelligence Test, managing emotions branch raw score ([2]; Week 0 (baseline)): 86.89 | MATRICS/MCCB Neuropsychological Assessment Battery, mazes subtest raw score ([2]; Week 0 (baseline)): 13.56 | MATRICS/MCCB Trail Making Test, Part A raw score ([2]; Week 0 (baseline)): 42.11 | MATRICS/MCCB Wechsler Memory Scale, 3rd ed., spatial span subtest raw score ([2]; Week 0 (baseline)): 13.11 | MATRICS/MCCB Attention/vigilance domain, change in T-score ([2]; Week 0 to Week 8): 7.56 | MATRICS/MCCB Attention/vigilance domain, difference PG vs placebo in T-score change ([2]; Week 0 to Week 8): 6.89 | MATRICS/MCCB Composite, change in T-score ([2]; Week 0 to Week 8): 7.00 | MATRICS/MCCB Reasoning and Problem Solving domain, change in T-score ([2]; Week 0 to Week 8): 6.22 | MATRICS/MCCB Reasoning and Problem Solving domain, difference PG vs placebo in T-score change ([2]; Week 0 to Week 8): 0.00 | MATRICS/MCCB Social cognition domain, change in T-score ([2]; Week 0 to Week 8): −0.89 | MATRICS/MCCB Social cognition domain, difference PG vs placebo in T-score change ([2]; Week 0 to Week 8): −9.22 | MATRICS/MCCB Speed of Processing domain, change in T-score ([2]; Week 0 to Week 8): 5.44 | MATRICS/MCCB Speed of Processing domain, difference PG vs placebo in T-score change ([2]; Week 0 to Week 8): 0.78 | MATRICS/MCCB Verbal learning domain, change in T-score ([2]; Week 0 to Week 8): 3.44 | MATRICS/MCCB Verbal learning domain, difference PG vs placebo in T-score change ([2]; Week 0 to Week 8): 2.67 | MATRICS/MCCB Visual learning domain, change in T-score ([2]; Week 0 to Week 8): 3.78 | MATRICS/MCCB Visual learning domain, difference PG vs placebo in T-score change ([2]; Week 0 to Week 8): −3.78 | MATRICS/MCCB Working memory domain, change in T-score ([2]; Week 0 to Week 8): 5.11 | MATRICS/MCCB Working memory domain, difference PG vs placebo in T-score change ([2]; Week 0 to Week 8): 4.00 | MATRICS/MCCB Composite, difference PG vs placebo in T-score change ([2]; Week 0 to Week 8): 0.00 | MATRICS/MCCB Composite, difference PG vs placebo in T-score change [2, 3]: no difference | MATRICS/MCCB Composite, change in T-score [2, 3]: 7.00±8.87 | MATRICS/MCCB Composite score ([2]; Week 4): 33.78 | MATRICS/MCCB BACS, symbol coding subtest raw score ([2]; Week 4): 44.78 | MATRICS/MCCB Brief Visuospatial Memory Test-Rev. raw score ([2]; Week 4): 21.33 | MATRICS/MCCB Category fluency test, animal naming raw score ([2]; Week 4): 18.44 | MATRICS/MCCB Continuous Performance Test (CPT), Identical Pairs version-Average d′ raw score ([2]; Week 4): 1.37 | MATRICS/MCCB Hopkins Verbal Learning Test raw score ([2]; Week 4): 20.89 | MATRICS/MCCB Letter-Number Span test raw score ([2]; Week 4): 12.67 | MATRICS/MCCB Mayer-Salovey-Caruso Emotional Intelligence Test, managing emotions branch raw score ([2]; Week 4): 90.60 | MATRICS/MCCB Neuropsychological Assessment Battery, mazes subtest raw score ([2]; Week 4): 15.67 | MATRICS/MCCB Trail Making Test, Part A raw score ([2]; Week 4): 38.33 | MATRICS/MCCB Wechsler Memory Scale, 3rd ed., spatial span subtest raw score ([2]; Week 4): 14.33 | MATRICS/MCCB Composite score ([2]; Week 8): 36.00 | MATRICS/MCCB BACS, symbol coding subtest raw score ([2]; Week 8): 38.67 | MATRICS/MCCB Brief Visuospatial Memory Test-Rev. raw score ([2]; Week 8): 22.33 | MATRICS/MCCB Category fluency test, animal naming raw score ([2]; Week 8): 20.44 | MATRICS/MCCB Continuous Performance Test (CPT), Identical Pairs version-Average d′ raw score ([2]; Week 8): 1.91 | MATRICS/MCCB Hopkins Verbal Learning Test raw score ([2]; Week 8): 21.00 | MATRICS/MCCB Letter-Number Span test raw score ([2]; Week 8): 13.11 | MATRICS/MCCB Mayer-Salovey-Caruso Emotional Intelligence Test, managing emotions branch raw score ([2]; Week 8): 86.10 | MATRICS/MCCB Neuropsychological Assessment Battery, mazes subtest raw score ([2]; Week 8): 17.33 | MATRICS/MCCB Trail Making Test, Part A raw score ([2]; Week 8): 34.33/ | MATRICS/MCCB Wechsler Memory Scale, 3rd ed., spatial span subtest raw score ([2]; Week 8): 14.22

Source: patent publication US20120142645A1, “NEUROACTIVE STEROID COMPOSITIONS AND METHODS OF USE FOR LOWERING CHOLESTEROL” (priority 2009, published 2012)
